US6737383B1, “Herbicidal oxadiazolidines” (priority 1999, dated 2004)

Columns and labels:
arrowleaf sida = assay: Test C postemergence arrowleaf sida; format: in vivo, Sida rhombifolia; details: 0 to 100 scale, 0 no effect, 100 complete control
How it was run: (§1)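 Foliar postemergence treatment of greenhouse plants grown in 60:40 sandy loam:potting mix; compounds delivered in non-phytotoxic solvent with surfactant. Evaluation is visual, 0–100, after ~14–21 d.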

velvetleaf = assay: Test C postemergence velvetleaf; format: in vivo, Abutilon theophrasti; details: 0 to 100 scale, 0 no effect, 100 complete control
How it was run: as §1

Green foxtail = assay: Test D green foxtail; format: in vivo; details: Preemergence, 0 to 100 scale
How it was run: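 Greenhouse pots, sandy loam, single species per pot. Preemergence tests: soil-surface application ≤1 day after planting. Compound formulated in non-phytotoxic solvent with surfactant. Visual rating 14–21 DAT, scale 0–100.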

purple nutsedge = assay: Test C postemergence purple nutsedge; format: in vivo, Cyperus rotundus; details: 0 to 100 scale, 0 no effect, 100 complete control
How it was run: as §1

hairy beggarticks = assay: Test C postemergence hairy beggarticks; format: in vivo, Bidens pilosa; details: 0 to 100 scale, 0 no effect, 100 complete control
How it was run: as §1

lambsquarters = assay: Test C postemergence lambsquarters; format: in vivo, Chenopodium album; details: 0 to 100 scale, 0 no effect, 100 complete control
How it was run: as §1

ladysthumb smartweed = assay: Test C postemergence ladysthumb smartweed; format: in vivo, Polygonum persicaria; details: 0 to 100 scale, 0 no effect, 100 complete control
Protocol: Compounds evaluated in this test were formulated in a non-phytotoxic solvent mixture which included a surfactant and applied to plants that were grown for various periods of time before treatment (postemergence application). A mixture of sandy loam soil and greenhouse potting mix in a 60:40 ratio was used for the postemergence test.
Plantings of these crops and weed species were adjusted to produce plants of appropriate size for the postemergence test. All plant species were grown using normal greenhouse practices. Crop and weed species include arrowleaf sida (Sida rhombifolia), barnyardgrass (Echinochloa crus-galli), cocklebur (Xanthium strumarium), common ragweed (Ambrosia elatior), corn (Zea mays), cotton (Gossypium hirsutum), eastern black nightshade (Solanum ptycanthum), fall panicum (Panicum dichotomiflorum), field bindweed (Convolvulus arvensis), giant foxtail (Setaria faberii), hairy beggarticks (Bidens pilosa), ivyleaf morningglory (Ipomoea hederacea), johnsongrass (Sorghum halepense), ladysthumb smartweed (Polygonum persicaria), lambsquarters (Chenopodium album), large crabgrass (Digitaria sanguinalis), purple nutsedge (Cyperus rotundus), redroot pigweed (Amaranthus retroflexus), soybean (Glycine max), surinam grass (Brachiaria decumbens), velvetleaf (Abutilon theophrasti) and wild poinsettia (Euphorbia heterophylla).
Treated plants and untreated controls were maintained in a greenhouse for approximately 14, to 21 days, after which all treated plants were compared to untreated controls and visually evaluated. Plant response ratings, summarized in Table C, were based upon a 0 to 100 scale where 0 was no effect and 100 was complete control. A dash response (−) means no test result.

fall panicum = assay: Test C postemergence fall panicum; format: in vivo, Panicum dichotomiflorum; details: 0 to 100 scale, 0 no effect, 100 complete control
How it was run: as §1

johnsongrass = assay: Test C postemergence johnsongrass; format: in vivo, Sorghum halepense; details: 0 to 100 scale, 0 no effect, 100 complete control
How it was run: as §1

cocklebur = assay: Test C postemergence cocklebur; format: in vivo, Xanthium strumarium; details: 0 to 100 scale, 0 no effect, 100 complete control
How it was run: as §1

ivyleaf morningglory = assay: Test C postemergence ivyleaf morningglory; format: in vivo, Ipomoea hederacea; details: 0 to 100 scale, 0 no effect, 100 complete control
How it was run: as §1

giant foxtail = assay: Test C postemergence giant foxtail; format: in vivo, Setaria faberii; details: 0 to 100 scale, 0 no effect, 100 complete control
How it was run: as §1

surinam grass = assay: Test C postemergence surinam grass; format: in vivo, Brachiaria decumbens; details: 0 to 100 scale, 0 no effect, 100 complete control
How it was run: as §1

common ragweed = assay: Test C postemergence common ragweed; format: in vivo, Ambrosia elatior; details: 0 to 100 scale, 0 no effect, 100 complete control
How it was run: as §1

corn = assay: Test C postemergence corn; format: in vivo, Zea mays; details: 0 to 100 scale, 0 no effect, 100 complete control
How it was run: as §1

CC(C)N(C(=O)n1oc(=O)n(C(C)C)c1=O)c1ccc(F)cc1F [Compound 109]
Plant response rating Arrowleaf sida (arrowleaf sida; Rate 140 g/ha): 60
Plant response rating Arrowleaf sida (arrowleaf sida; Rate 280 g/ha): 70
Plant response rating Arrowleaf sida (arrowleaf sida; Rate 560 g/ha): 85
Plant response rating Arrowleaf sida (arrowleaf sida; Rate 1120 g/ha): 95
Plant response rating, Velvetleaf (velvetleaf; Rate 140 g/ha): 10
Plant response rating, Velvetleaf (velvetleaf; Rate 280 g/ha): 20
Plant response rating, Velvetleaf (velvetleaf; Rate 560 g/ha): 50
Plant response rating, Velvetleaf (velvetleaf; Rate 1120 g/ha): 75
Plant response rating, Green foxtail (Green foxtail; Rate 250 g/ha): 100
Plant response rating, Green foxtail (Green foxtail; Rate 500 g/ha): 100
Plant response rating, Purple nutsedge (purple nutsedge; Rate 140 g/ha): 0
Plant response rating, Purple nutsedge (purple nutsedge; Rate 280 g/ha): 0
Plant response rating, Purple nutsedge (purple nutsedge; Rate 560 g/ha): 0
Plant response rating, Purple nutsedge (purple nutsedge; Rate 1120 g/ha): 0
Plant response rating H. beggarticks (hairy beggarticks; Rate 280 g/ha): 5
Plant response rating H. beggarticks (hairy beggarticks; Rate 560 g/ha): 70
Plant response rating H. beggarticks (hairy beggarticks; Rate 1120 g/ha): 85
Plant response rating Lambsquarters (lambsquarters; Rate 140 g/ha): 10
Plant response rating Lambsquarters (lambsquarters; Rate 280 g/ha): 10
Plant response rating Lambsquarters (lambsquarters; Rate 560 g/ha): 30
Plant response rating Lambsquarters (lambsquarters; Rate 1120 g/ha): 70
Plant response rating Ladysthumb (ladysthumb smartweed; Rate 280 g/ha): 10
Plant response rating Ladysthumb (ladysthumb smartweed; Rate 560 g/ha): 30
Plant response rating Ladysthumb (ladysthumb smartweed; Rate 1120 g/ha): 95
Plant response rating Fall panicum (fall panicum; Rate 140 g/ha): 50
Plant response rating Fall panicum (fall panicum; Rate 280 g/ha): 50
Plant response rating Fall panicum (fall panicum; Rate 560 g/ha): 80
Plant response rating Fall panicum (fall panicum; Rate 1120 g/ha): 95
Plant response rating Johnsongrass (johnsongrass; Rate 140 g/ha): 0
Plant response rating Johnsongrass (johnsongrass; Rate 280 g/ha): 10
Plant response rating Johnsongrass (johnsongrass; Rate 560 g/ha): 60
Plant response rating Johnsongrass (johnsongrass; Rate 1120 g/ha): 95
Plant response rating, Cocklebur (cocklebur; Rate 140 g/ha): 30
Plant response rating, Cocklebur (cocklebur; Rate 280 g/ha): 30
Plant response rating, Cocklebur (cocklebur; Rate 560 g/ha): 60
Plant response rating I. morningglory (ivyleaf morningglory; Rate 140 g/ha): 0
Plant response rating I. morningglory (ivyleaf morningglory; Rate 280 g/ha): 50
Plant response rating I. morningglory (ivyleaf morningglory; Rate 560 g/ha): 50
Plant response rating I. morningglory (ivyleaf morningglory; Rate 1120 g/ha): 70
Plant response rating, Giant foxtail (giant foxtail; Rate 140 g/ha): 50
Plant response rating, Giant foxtail (giant foxtail; Rate 280 g/ha): 80
Plant response rating, Giant foxtail (giant foxtail; Rate 560 g/ha): 80
Plant response rating, Giant foxtail (giant foxtail; Rate 1120 g/ha): 85
Plant response rating Surinam grass (surinam grass; Rate 140 g/ha): 0
Plant response rating Surinam grass (surinam grass; Rate 280 g/ha): 5
Plant response rating Surinam grass (surinam grass; Rate 560 g/ha): 50
Plant response rating Surinam grass (surinam grass; Rate 1120 g/ha): 95
Plant response rating Common ragweed (common ragweed; Rate 140 g/ha): 5
Plant response rating Common ragweed (common ragweed; Rate 280 g/ha): 10
Plant response rating Common ragweed (common ragweed; Rate 560 g/ha): 10
Plant response rating Common ragweed (common ragweed; Rate 1120 g/ha): 20
Plant response rating, Corn (corn; Rate 140 g/ha): 0
Plant response rating, Corn (corn; Rate 280 g/ha): 0
Plant response rating, Corn (corn; Rate 560 g/ha): 5
Plant response rating, Corn (corn; Rate 1120 g/ha): 55
